Earlier results as cited in patent US20160208299A1, “PRODUCTION OF ISOQUINOLINE ALKALOIDS AND FLAVONOIDS IN PLANT CELL CULTURES OF GOLDENSEAL (HYDRASTIS CANADENSIS)” (DIANAPLANTSCIENCES INC., priority 2015, published 2016).

Experiments:
[1] = system: Entamoeba histolytica
[2] = system: Giardia lamblia
[3] = system: Trichomonas vaginalis
[4] = system: E. coli; conditions: cells lining the walls of the urinary tract

COc1ccc2cc3[n+](cc2c1OC)CCc1cc2c(cc1-3)OCO2 [berberine]
effective: effectiveness against parasite [1] | effectiveness against parasite [2] | effectiveness against parasite [3] | effectiveness in treating infection by blocking the adhesion of E. coli [4]
